# According to ChEMBL document CHEMBL1144508, “Inhibitory activity of stilbenes on Alzheimer's beta-amyloid fibrils in vitro” (Bioorg Med Chem, 2007):
# Active and inactive are the calls of the source. No cut-off for these calls is given here.
# Legend:
# [1] = organism: Homo sapiens; assay: (§1) Antiamyloidogenic activity assessed as inhibition of beta amyloid (25-35) fibril formation after 6 hrs
# [2] = as §1; parameters: species or system Homo sapiens
Structure (SMILES),Activity [1],EC50 [2]
O=c1oc2c(O)c(O)cc3c(=O)oc4c(O)c(O)cc1c4c23,inactive,–
OC[C@H]1O[C@@H](Oc2cc(O)cc(/C=C/c3ccc(O)cc3)c2)[C@H](O)[C@@H](O)[C@@H]1O [PICEID],–,4.7 µM
COc1cc(/C=C/C(=O)CC(=O)/C=C/c2ccc(O)c(OC)c2)ccc1O [CURCUMIN],–,10 µM
Oc1ccc(/C=C/c2cc(O)cc(O)c2)cc1 [RESVERATROL],–,5.6 µM
